In ChEMBL document CHEMBL3414464, “Design, synthesis, and evaluation of NO-donor containing carbonic anhydrase inhibitors to lower intraocular pressure” (J Med Chem, 2015):
Values after ≈ are worked out from the molar mass of the structure shown.

Legend:
[1] = Drug level in iris ciliary body of pigmented male Dutch-belted rabbit treated with 2 x 25 uL topical dose of formulated compound in each eye and measured 4 hrs post dose by LC-MS/MS method; format: ADME, tissue-based, Oryctolagus cuniculus; details: in vivo, topical_or_ocular
Oryctolagus cuniculus = experiment: Reduction in intraocular pressure in pigmented male Dutch-belted rabbit assessed as intraocular pressure level at trough treated with 2% 2 x 25 uL topical dose of formulated compound in right eye and measured after 1 to 2 hrs by non-contact tonometry; format: functional
[2] = Drug level in aqueous humor of pigmented male Dutch-belted rabbit treated with 2 x 25 uL topical dose of formulated compound in each eye and measured 4 hrs post dose by LC-MS/MS method; format: ADME, tissue-based, Oryctolagus cuniculus; details: in vivo, topical_or_ocular
[3] = (§1) Drug level in aqueous humor of pigmented male Dutch-belted rabbit assessed as compound formation treated with 2 x 25 uL topical dose of formulated (4S,6S)-4-Ethylamino-6-(3-nitrooxy-propyl)-7,7-dioxo-4,5,6,7-tetrahydro-7lambda6-thieno[2,3-b]thiopyran-2-sulfonic acid amide in each eye and measured 4 hrs post dose by LC-MS/MS method; format: ADME, tissue-based, Oryctolagus cuniculus; details: in vivo, topical_or_ocular
[4] = as §1, with “iris ciliary body” for “aqueous humor”; format: ADME, tissue-based, Oryctolagus cuniculus; details: in vivo, topical_or_ocular
Cynomolgus monkey [5] = experiment: Reduction in intraocular pressure unilaterally lasered ocular hypertensive cynomolgus monkey treated with 2% 2 x 25 uL topical dose of formulated compound in right eye and measured after 2 hrs by ocular hypertension primate tonometry; format: functional, Macaca fascicularis
[6] = Drug level in iris ciliary body of pigmented male Dutch-belted rabbit assessed as compound formation treated with 2 x 25 uL topical dose of formulated (R)-3-(4-(Ethylamino)-1,1-dioxido-6-sulfamoyl-3,4-dihydro-2Hthieno[3,2-e][1,2]thiazin-2-yl)propyl nitrate in each eye and measured 4 hrs post dose by LC-MS/MS method; format: ADME, tissue-based, Oryctolagus cuniculus; details: in vivo, topical_or_ocular
[7] = Drug level in aqueous humor of pigmented male Dutch-belted rabbit assessed as compound formation treated with 2 x 25 uL topical dose of formulated (R)-3-(4-(Ethylamino)-1,1-dioxido-6-sulfamoyl-3,4-dihydro-2Hthieno[3,2-e][1,2]thiazin-2-yl)propyl nitrate in each eye and measured 4 hrs post dose by LC-MS/MS method; format: ADME, tissue-based, Oryctolagus cuniculus; details: in vivo, topical_or_ocular
Cynomolgus monkey [8] = experiment: Reduction in intraocular pressure unilaterally lasered ocular hypertensive cynomolgus monkey treated with 1% 2 x 25 uL topical dose of formulated compound in right eye and measured after 2 hrs by ocular hypertension primate tonometry; format: functional, Macaca fascicularis

Description for physchem: Solubility of the compound

| SMILES | solubility (physchem) [µg/mL] | Drug uptake [1] | Drug uptake [2] | Activity (Oryctolagus cuniculus) [mmHg] | also measured |
| --- | --- | --- | --- | --- | --- |
| CCN[C@H]1C[C@H](CCCO[N+](=O)[O-])S(=O)(=O)c2sc(S(N)(=O)=O)cc21 | 11300 (≈ 27.3 mM) | Active | Active | 5 |  |
| CCN[C@H]1C[C@H](CCCO)S(=O)(=O)c2sc(S(N)(=O)=O)cc21 |  |  |  |  | Drug metabolism [3]: metabolite_detected; Drug metabolism [4]: metabolite_detected |
| CCN[C@H]1CN(CCCO[N+](=O)[O-])S(=O)(=O)c2sc(S(N)(=O)=O)cc21 | 2200 (≈ 5.31 mM) | Active | Active | 5 | Activity (Cynomolgus monkey [5]): 10.5 mmHg |
| CCN[C@H]1CN(CCCO)S(=O)(=O)c2sc(S(N)(=O)=O)cc21 |  |  |  |  | Drug metabolism [6]: metabolite_detected; Drug metabolism [7]: metabolite_detected |
| CCN[C@H]1CN(CCCOC)S(=O)(=O)c2sc(S(N)(=O)=O)cc21 [BRINZOLAMIDE] | 500 (≈ 1.3 mM) |  |  |  | Activity (Cynomolgus monkey [8]): 2 mmHg |
